Laboratory results taken from the Biogen ADME set (Fang et al. 2023).
Converted amounts (≈) assume the structure as drawn.

Conditions: for aqueous solubility: pH 6.8

SMILES | MDR1-MDCK efflux ratio | fraction unbound, human plasma | fraction unbound, rat plasma | intrinsic clearance, human liver microsomes [mL/min/kg] | intrinsic clearance, rat liver microsomes [mL/min/kg] | aqueous solubility [µg/mL]
CCOc1cc(CC(=O)N[C@@H](CC(C)C)c2ccccc2N2CCCCC2)ccc1C(=O)O | 28.7 | 0.0128 | 0.00864 | 38.2 | 218 | 
N#CCN(CN1C(=O)CC2(CCCC2)C1=O)C1CC1 |  |  |  |  |  | 38.5 (≈ 147 µM)
Cc1cn2cc(C(=O)N(C)CCO)cc(N[C@@H]3CCOc4cccc(C)c43)c2n1 | 73.4 |  |  | 83.6 | 288 | 
Cc1cc(C)n2ncc(C(=O)N[C@H]3CC[C@@H](C(C)C)CC3)c2n1 | 0.775 |  |  |  |  | 
CC(=O)NCC1CCN(C(=O)c2ccc(C)nc2)CC1 | 130 |  |  | ≤ 4.74 | ≤ 10.7 | 54 (≈ 196 µM)
CCN1CCc2ncnc(N3CCNc4ccccc4C3)c2C1 | 1.78 |  |  | ≤ 4.74 | 105 | 52.1 (≈ 168 µM)
CCN(CC)CCCNc1ncc(-c2cc(C)no2)c(-c2ccco2)n1 | 17.5 |  |  | 5.13 | 312 | 69.8 (≈ 196 µM)
Clc1ccc(Cc2nc(-c3ccccc3)n[nH]2)cn1 | 1.52 |  |  | 40.9 | 66.8 | 20.1 (≈ 74.2 µM)
C=CC(=O)Nc1cc(-n2c(=O)ccc3cnc4ccc(-c5ccc(NS(C)(=O)=O)cc5)cc4c32)ccc1C | 50.5 |  |  |  |  | 0.3 (≈ 0.572 µM)
Cc1ccc(CN(C)C(=O)c2cn(Cc3ccccc3F)nn2)cc1 | 0.764 |  |  | 64.8 | 1090 | 11.4 (≈ 33.7 µM)
Cn1ccnc1CN1CCN(Cc2ccc(F)cc2C#N)CC1 | 6.3 |  |  | ≤ 4.74 | 446 | 43.9 (≈ 140 µM)
CC(C)COc1cc(F)cc(-c2cncc(C(=O)N3CCCC3)n2)c1 | 0.442 |  |  |  |  | 0.7 (≈ 2.04 µM)
CN1C(=O)c2ccc(C(=O)N(CC3CCCCC3)C3CC3)cc2C1=O |  |  |  | 123 | 2600 | 
Cc1csc(NC(=O)c2cccc(C)c2C)n1 |  |  |  | 173 | 916 | 11.3 (≈ 45.8 µM)
CCc1nc2cc(-c3c(OC)cccc3OC)ccc2o1 | 0.46 |  |  | 49.6 | 3760 | 19 (≈ 67.1 µM)
COc1ncccc1C(=O)Nc1nc(C)nn1C | 0.585 |  |  | ≤ 4.74 | ≤ 10.7 | 
Cc1cc(CNc2ncc(C(F)(F)F)cc2Cl)no1 | 0.601 |  |  | 64.6 | 128 | 26.8 (≈ 92 µM)
CN(NC(=O)c1ccn(-c2ccccc2)n1)c1ccccc1 |  |  |  | 82.3 | 1900 | 58.1 (≈ 199 µM)
O=C(CN1CCOC(c2ccc(F)cc2)C1)Nc1ccccc1OC(F)F (stereo not given) | 0.589 |  |  | 93.6 | 566 | 23.1 (≈ 60.7 µM)
Cc1cc(NC(=O)C2CCN(c3ccncc3Cl)CC2)no1 | 0.457 |  |  | 12.7 | 186 | 29 (≈ 90.4 µM)
CCOC(=O)c1c(C)n(C)c2ccc(O)cc12 |  |  |  | 30.8 | 166 | 

SMILES | MDR1-MDCK efflux ratio | fraction unbound, human plasma | fraction unbound, rat plasma | intrinsic clearance, human liver microsomes [mL/min/kg] | intrinsic clearance, rat liver microsomes [mL/min/kg] | aqueous solubility [µg/mL]
O=C(NCC1CC1)c1ccc(-n2ccnc2)nc1 | 1.08 |  |  | ≤ 4.74 | 23.2 | 45.2 (≈ 186 µM)
Cn1ccnc1C1CCN(C(=O)COCc2nc3cc(F)ccc3[nH]2)CC1 |  |  |  | ≤ 4.74 | 61.5 | 
Cc1ccc(C)c(S(=O)(=O)N2CCCN(C3CCC3)CC2)c1 | 0.605 |  |  | 214 | 2150 | 57.9 (≈ 179 µM)
O=C1Nc2ccccc2O[C@H]2C[C@@H]1N(CC1CC1)C2 | 0.851 |  |  | 14.5 | 377 | 42.1 (≈ 163 µM)
O=C(CCn1nnc2ccccc2c1=O)Nc1ccncc1 | 4.06 |  |  | 9.23 | 84.8 | 21.4 (≈ 72.3 µM)
COCCN(C)c1ccc(CN2CCc3nn(C)c(=O)cc3C2)cn1 | 3.02 |  |  | ≤ 4.74 | 22 | 
CCOC(=O)c1ccc(NC(=O)Cn2cnc3ccccc32)cc1 | 4.28 |  |  | 7.03 | 521 | 18.4 (≈ 56.9 µM)
N#CCCN(C(=O)c1cccs1)C12CC3CC(CC(C3)C1)C2 | 0.531 |  |  | 262 | 2310 | 7.2 (≈ 22.9 µM)
C[C@H]1CN(Cc2c(Cl)cccc2C(F)(F)F)C[C@@]1(CC(=O)O)C(=O)NC1CCN(CC2=CCCCC2)CC1 | 80.8 |  |  |  |  | 
CC(Sc1nc2c(cnn2-c2ccccc2)c(=O)[nH]1)C(N)=O (stereo not given) |  |  |  |  |  | 2.15 (≈ 6.82 µM)
Cc1ccc(CNC/C=C/c2ccccc2)cn1 | 0.387 |  |  | 28.5 | 410 | 29.1 (≈ 122 µM)
NC(=O)C1(Cc2ccc(-c3ccncc3)cc2)CCN(C(=O)Cc2cccc(F)c2)CC1 |  | 0.102 | 0.114 |  |  | 63 (≈ 146 µM)
O=S(=O)(c1cccc2c(O)nccc12)N1CCCNCC1 | 8.23 | 0.708 | 0.979 | ≤ 4.74 | 191 | 
O=C(NCCN1CCC(n2c(=O)[nH]c3cc(Cl)ccc32)CC1)c1ccc(F)cc1 |  |  |  | 60.9 | 373 | 
COc1ccc(C2(NCc3ccc(N4CCCC4=O)cc3)CC2)cc1 | 0.512 |  |  | 13.4 | 266 | 81.5 (≈ 242 µM)
O=C(Nc1nnc[nH]1)c1ccc(C2SCCCS2)cc1 |  |  |  | 8.22 | 147 | 
Cc1cc(N2CCN(C(=O)OC(C)(C)C)[C@H](C)C2)ncn1 | 0.766 |  |  | 9.46 | 124 | 51.7 (≈ 177 µM)
CN(c1ccccc1)S(=O)(=O)c1csc(C(=O)Nc2ccc(C(=O)O)cc2)c1 |  |  |  |  |  | 80.3 (≈ 193 µM)
O=C(O)c1ccc(CN2CC[C@H](c3nc4cc(Cl)ccc4o3)C2)cc1 | 1.11 |  |  | ≤ 4.74 | 17.8 | 32.4 (≈ 90.8 µM)
Cc1nccn1-c1ccc(F)cc1CNC(=O)C(C)C | 22.2 |  |  | 8.38 | 57.2 | 59.4 (≈ 216 µM)
CN(C)c1cc(CNc2ccc(C#N)cn2)ccn1 | 0.695 |  |  | 10.4 | 94.5 | 46 (≈ 182 µM)
